Here are results for nine compounds from PubChem BioAssay (NCI).

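Cultured in 96-well plates, cells were exposed to test compound for 48 hours across five concentrations. GI50 is the concentration that inhibits growth by half. TGI is the concentration that stops growth completely.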

Common to all, as to test: NCI-60 cell line screen, 48 h
The test system of experiment [1] is 786-0 renal.
Experiment [2] concerns COLO 205 colon.
Experiment [3] deals with LOX IMVI melanoma.
The subject of experiment [4] is MALME-3M melanoma.
Experiment [5] has as its system MCF7 breast.
In experiment [6] the test system is OVCAR-4 ovarian.
Experiment [7] relates to PC-3 prostate.
The subject of experiment [8] is RPMI-8226 leukemia.
The test system of experiment [9] is SK-OV-3 ovarian.
Experiment [10] deals with SW-620 colon.

In the case of `CS(=O)(=O)OCCCNCCCOS(C)(=O)=O`, the TGI in experiment [1] was determined as 6310 µM; in experiment [2] it was 4540 µM; in [3], 3920 µM; in [4], 4890 µM; in [5], 5320 µM; in experiment [6], 5360 µM. The TGI worked out at 5620 µM in experiment [7], 6780 µM in [8], 7470 µM in [9] and 6720 µM in [10].
For the compound `O=[N+]([O-])c1ccc(Cl)c(CNc2ncnc3c2ncn3C2CCCCO2)c1` (stereo not given), the TGI in [1] is above 100 µM; in experiment [2], above 100 µM; in [3], above 100 µM; in [4], above 100 µM; in [5], 62 µM; in experiment [6] it was above 100 µM. In addition, the TGI in [7], in [8], in [9] and in experiment [10] was above 100 µM in each case.
With `CCCc1cc(=O)n2c(C(=O)Nc3ccc(F)cc3)c(C(=O)Nc3ccc(F)cc3)sc2n1`, the GI50 was 2.64 µM in experiment [1]; 160 µM in [2]; 45.5 µM in experiment [3]; 36 µM in experiment [4]; 54.8 µM in experiment [5]; 26.4 µM in [6]. The GI50 in experiment [7] was 30.1 µM; in experiment [8], 23.9 µM; in [9], 41.7 µM; in experiment [10] it was 56.5 µM. Moreover, the TGI in experiment [1] is 13.3 µM; in [2] it was above 160 µM; in experiment [3], above 160 µM; in experiment [4], 91.3 µM; in experiment [5], above 160 µM; in experiment [6] it was 54.9 µM. The TGI was above 160 µM in experiment [7], 93.6 µM in experiment [8], above 160 µM in [9] and above 160 µM in [10].
Consider `COc1ccc(/C=C/c2c(C(=O)/C=C/c3ccc(C(F)(F)F)cc3)c(C)nc3ccccc23)cc1`, for which the GI50 in experiment [1] is 1.61 µM; in experiment [2], 2.1 µM; in experiment [3], 1.37 µM; in experiment [4], 1.71 µM; in experiment [5], 1 µM; in experiment [6] it was 1.81 µM. Moreover, the GI50 in [7] is 1.83 µM; in experiment [8], 0.807 µM; in [9] it was 2.24 µM; in [10], 1.48 µM. Moreover, the TGI is 3.02 µM in experiment [1]; 4.67 µM in [2]; 2.74 µM in [3]; 3.19 µM in [4]; 3.4 µM in experiment [5]; 3.67 µM in experiment [6]. Also, the TGI in experiment [7] was 5.58 µM; in [8], 7.65 µM; in experiment [9], 5.82 µM; in experiment [10], 4.7 µM.
Consider `CC/C(Cc1ccccc1)=C(\c1ccc(OCCN2CCCC2)cc1)c1ccc(OC(=O)NCc2ccccc2)cc1`, for which the GI50 is 1.64 µM in experiment [1]; 2.11 µM in [2]; 1.71 µM in experiment [3]; 1.68 µM in experiment [4]; 0.0994 µM in experiment [5]; 1.86 µM in [6]. Moreover, the GI50 in experiment [7] is 1.86 µM; in experiment [8] it was 2.25 µM; in experiment [9], 11.6 µM; in experiment [10] it was 1.93 µM. The TGI in experiment [1] came out at 3 µM; in [2], 4.28 µM; in experiment [3], 3.1 µM; in [4], 3.19 µM; in experiment [5], 2.16 µM; in experiment [6], 3.85 µM. Further, the TGI is 3.55 µM in experiment [7], 4.95 µM in experiment [8], 24.6 µM in experiment [9] and 3.77 µM in [10].
In the case of `COC(=O)Nc1nc2ccccc2[nH]1`, the TGI in [1], in experiment [2], in [3], in experiment [4], in [5] and in experiment [6] was above 100 µM throughout. Also, the TGI in experiment [7] is above 100 µM; in experiment [8] it was above 100 µM; in experiment [9] it was above 31.5 µM; in experiment [10] it was above 100 µM.
Turning to `Nc1nc2c(C(=O)NCc3cccs3)nnn2c2cccc(Cl)c12`, the TGI in experiment [1], in [2], in experiment [3], in [4], in [5] and in [6] was above 100 µM in each case. Moreover, the TGI in experiment [7], in experiment [8], in experiment [9] and in experiment [10] was above 100 µM throughout.
In the case of `N#CC1=C(N)Oc2c(ccc3ccccc23)C1c1cc(=O)oc2ccc(Cl)cc12` (stereo not given), the GI50 in experiment [1] was 0.646 µM; in [2], 1.95 µM; in experiment [3], 0.854 µM; in experiment [4], 18.1 µM; in experiment [5] it was 0.347 µM; in experiment [6], 4.31 µM. Also, the GI50 in experiment [7] is 0.495 µM; in experiment [8], 1.68 µM; in experiment [9], 0.965 µM; in experiment [10], 0.411 µM. The TGI was above 100 µM in [1]; 8.27 µM in [2]; 40.5 µM in experiment [3]; 67.8 µM in experiment [4]; 22.1 µM in experiment [5]; above 100 µM in [6]. Besides, the TGI in [7] is above 100 µM; in [8], 20 µM; in [9], above 100 µM; in experiment [10], above 100 µM.
Take `C#C[C@@]1(O)[C@@H](CO)O[C@@H](n2cc(I)c3c(N)ncnc32)[C@@H]1O`: the GI50 is 0.334 µM in experiment [1]; 0.0874 µM in experiment [2]; 0.0812 µM in experiment [3]; 0.826 µM in [4]; below 0.0117 µM in [5]; 0.809 µM in experiment [6]. Besides, the GI50 in [7] is 0.0756 µM; in experiment [8], 0.343 µM; in experiment [9] it was 0.0343 µM; in experiment [10], 0.0581 µM. For the same compound, the TGI was 3.24 µM in experiment [1]; 0.706 µM in experiment [2]; 1.22 µM in experiment [3]; 3.39 µM in [4]; above 100 µM in experiment [5]; above 100 µM in experiment [6]. Besides, the TGI is above 38.1 µM in [7], 5.51 µM in experiment [8], 0.729 µM in experiment [9] and above 100 µM in experiment [10].
